Here are results for one molecule from ChEMBL document CHEMBL5316282, “Small-Molecule Cyanamide Pan-TEAD·YAP1 Covalent Antagonists” (J Med Chem, 2023).

Molecules are shown by their SMILES. Active and inactive are the calls of the source. The rule behind the calls is not given here.

The target in assay [1] is T1, Transcriptional enhancer factor TEF-4 (Homo sapiens, UniProt Q15562). The assay can be described thus: Inhibition of TEAD2 (unknown origin) transfected in human HEK293 cells co-transfected with renilla plasmid assessed as maximum inhibition of transcriptional activity at 10 uM incubated for 24 hrs by dual Glo-luciferase reporter assay relative to control. It counts as cell-based. For orientation: In a reporter assay the amount or activity of a reporter protein is the signal.

A short description of assay [2]: Inhibition of TEAD in human MDA-MB-468 cells assessed as inhibition of CTGF transcriptional level incubated for 24 hrs by qRT-PCR assay. It counts as cell-based. Particulars: Homo sapiens, MDA-MB-468, 24 h; read-out: IC50. A general note: In qPCR the cycle at which signal appears reflects the starting amount.
Assay [3] has as its target T1, Transcriptional enhancer factor TEF-4. The assay can be described thus: Inhibition of TEAD2 (unknown origin) transfected in human HEK293 cells co-transfected with renilla plasmid assessed as maximum inhibition of transcriptional activity at 0.1 to 10 uM incubated for 24 hrs by dual Glo-luciferase reporter assay relative to control. The format is cell-based. Particulars: dose 0.1-10 µM.

Another assay deals with MDA-MB-468. As to the kind of experiment: Antiproliferative activity against human MDA-MB-468 cells assessed as maximum inhibition of cell viability incubated for 3 days by MTS assay relative to control. The format is functional, cell-based. Particulars: time 3.0 day.
The target of assay [4] is Transcriptional coactivator YAP1/Transcriptional enhancer factor TEF-1 (Homo sapiens) (UniProt P46937+P28347). As to the kind of experiment: Inhibition of NanoLuc-tagged TEAD1 (unknown origin)-Halo-Tagged YAP1 (unknown origin) protein-protein interaction transfected in HEK293 cells using furimazine as substrate at 10 uM incubated for 2 to 24 hrs by NanoBRET binding assay. The format is cell-based. Particulars: time 2-24 hrs, TDE = time-dependent effect.

A further assay has as its system Huh-7. The assay can be described thus: Antiproliferative activity against human Huh-7 cells assessed as reduction in cell viability incubated for 3 days by MTS assay. The format is functional, cell-based. The following applies: Huh-7, 72 h.
Assay [5] addresses T2, Transcriptional enhancer factor TEF-3 (Homo sapiens, UniProt Q15561). As to the kind of experiment: Displacement of FAM- labeled YAP1 peptide (60 to 99 residues) from human TEAD4 (217 to 434 residues) expressed in Escherichia coli BL21 (DE3) cells at 100 uM incubated for 24 hrs followed by dialysis buffer for 24 hrs.
For assay [6], the target named is T2, Transcriptional enhancer factor TEF-3. As to the kind of experiment: Displacement of FAM- labeled YAP1 peptide (60 to 99 residues) from human TEAD4 (217 to 434 residues) expressed in Escherichia coli BL21 (DE3) cells incubated for 24 hrs by fluorescence polarization-based competitive binding assay. The following applies: read-out: IC50. On the technique in general: Fluorescence polarisation rises when a labelled molecule tumbles more slowly, as on binding a larger partner.

For assay [7] the target is unchanged. The assay can be described thus: Inhibition of TEAD4 (unknown origin) transfected in human HEK293 cells co-transfected with renilla plasmid assessed as maximum inhibition of transcriptional activity at 0.01 to 100 uM incubated for 24 hrs by dual Glo-luciferase reporter assay relative to control. Particulars: dose 0.01-100 µM. The format is cell-based.

T2 sequence (Q15561 whole entry, the tested form may be a part): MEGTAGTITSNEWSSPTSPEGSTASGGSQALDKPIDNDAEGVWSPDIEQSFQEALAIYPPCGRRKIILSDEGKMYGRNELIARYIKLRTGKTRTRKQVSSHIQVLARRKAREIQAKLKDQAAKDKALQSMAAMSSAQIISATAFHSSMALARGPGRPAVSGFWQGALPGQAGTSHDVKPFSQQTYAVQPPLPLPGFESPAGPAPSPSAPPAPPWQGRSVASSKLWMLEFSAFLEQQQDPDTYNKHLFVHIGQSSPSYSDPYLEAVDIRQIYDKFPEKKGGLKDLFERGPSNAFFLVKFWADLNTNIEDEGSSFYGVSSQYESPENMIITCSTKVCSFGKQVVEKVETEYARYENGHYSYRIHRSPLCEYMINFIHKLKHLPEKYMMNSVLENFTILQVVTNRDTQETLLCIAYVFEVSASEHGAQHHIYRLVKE
T1 sequence (Q15562 whole entry): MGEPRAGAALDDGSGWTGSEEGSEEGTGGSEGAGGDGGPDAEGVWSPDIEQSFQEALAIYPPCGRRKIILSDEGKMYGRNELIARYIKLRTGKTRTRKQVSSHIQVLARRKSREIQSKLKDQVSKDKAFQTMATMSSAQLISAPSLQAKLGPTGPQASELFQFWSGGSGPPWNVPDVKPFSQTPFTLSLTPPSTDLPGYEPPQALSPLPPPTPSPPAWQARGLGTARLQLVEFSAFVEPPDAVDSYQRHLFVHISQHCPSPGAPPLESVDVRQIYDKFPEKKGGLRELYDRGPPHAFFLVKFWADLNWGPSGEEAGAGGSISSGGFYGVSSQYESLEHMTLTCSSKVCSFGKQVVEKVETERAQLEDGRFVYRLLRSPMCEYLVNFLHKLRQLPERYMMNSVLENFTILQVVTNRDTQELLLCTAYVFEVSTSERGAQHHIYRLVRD
Transcriptional coactivator YAP1/Transcriptional enhancer factor TEF-1 (Homo sapiens), sequence (P28347 whole entry, looked up): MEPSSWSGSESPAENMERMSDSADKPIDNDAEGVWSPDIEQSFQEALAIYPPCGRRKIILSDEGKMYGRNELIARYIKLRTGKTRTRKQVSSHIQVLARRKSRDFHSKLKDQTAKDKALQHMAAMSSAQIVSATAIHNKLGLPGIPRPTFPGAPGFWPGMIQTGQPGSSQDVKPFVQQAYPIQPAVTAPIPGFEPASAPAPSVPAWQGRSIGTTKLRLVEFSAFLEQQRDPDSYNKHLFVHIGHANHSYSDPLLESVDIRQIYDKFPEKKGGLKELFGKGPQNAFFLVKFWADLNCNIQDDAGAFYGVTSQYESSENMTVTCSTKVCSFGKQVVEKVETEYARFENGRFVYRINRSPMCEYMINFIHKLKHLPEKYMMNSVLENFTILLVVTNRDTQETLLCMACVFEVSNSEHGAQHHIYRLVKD
Transcriptional coactivator YAP1/Transcriptional enhancer factor TEF-1 (Homo sapiens), sequence (P46937 whole entry, looked up): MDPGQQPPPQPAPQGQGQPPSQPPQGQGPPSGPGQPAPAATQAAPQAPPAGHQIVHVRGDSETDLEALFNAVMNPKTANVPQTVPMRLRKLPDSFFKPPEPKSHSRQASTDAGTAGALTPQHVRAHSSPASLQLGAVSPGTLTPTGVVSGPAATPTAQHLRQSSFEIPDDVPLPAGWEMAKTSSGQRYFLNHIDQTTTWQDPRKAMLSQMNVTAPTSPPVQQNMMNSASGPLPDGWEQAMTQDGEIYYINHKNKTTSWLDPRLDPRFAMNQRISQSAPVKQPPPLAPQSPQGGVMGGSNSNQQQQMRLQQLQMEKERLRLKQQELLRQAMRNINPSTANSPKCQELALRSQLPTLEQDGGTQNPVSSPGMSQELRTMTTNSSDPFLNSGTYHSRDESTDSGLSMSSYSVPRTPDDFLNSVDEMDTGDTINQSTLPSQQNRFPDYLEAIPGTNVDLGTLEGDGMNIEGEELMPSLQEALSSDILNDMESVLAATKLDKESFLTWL

The inhibition is the drop in the measured response relative to a control, in per cent. Broadly, the IC50 is the point on the concentration scale where inhibition reaches its midpoint. Regarding `N#CN1Cc2cccc(Nc3cccc(C(F)(F)F)c3)c2C1`, the inhibition in assay [1] is 40%; in assay [4], “Tde”. Besides, the values for the IC50 (in assay [2]; in the assay on Huh-7; in assay [6]) were 0.6 µM, 0.1 µM and 1.1 µM, respectively. Also, the Imax in [3] was found to be 42.7%; in [7], 46.6%. Besides, the Imax result in the assay with MDA-MB-468 is “inactive”. For the same molecule, the inhibition entry in assay [5] is “Active”.
